The text below walks through data of patent US11905277B1, “2-alkyloxy-6-(2-oxo-2H-1-benzopyran-3-yl)-4-phenylpyridine-3-carbonitrile as an antimicrobial compound” (KING FAISAL UNIVERSITY, priority 2023, dated 2024).

The subject of one series is Bacillus cereus. The series is described as follows: Agar plate disc-diffusion, antibacterial activity (inhibition zone). It is filed as cell-based. Conditions: nutrient agar, 37° C., 48 h, DMSO zone subtracted. How it is done: (§1) The agar plate disc-diffusion method was applied. Sterilized filter papers (6 mm in diameter) were wetted with 10 μL of a solution of 2-ethoxy-6-(2-oxo-2H-1-benzopyran-3-yl)-4-phenylpyridine-3-carbonitrile (1) and 2-methoxy-6-(2-oxo-2H-1-benzopyran-3-yl)-4-phenylpyridine-3-carbonitrile (2) to be tested, containing […], and the discs were allowed to air dry. The discs were then placed onto the surface of agar plates (nutrient agar for bacteria and Sabouraud's dextrose agar for fungi) seeded with the test organism. Each plate contained 15 mL of the agar medium, previously seeded with 0.2 mL of the broth culture of each organism pregrown for 18 hours. The plates were incubated at 37° C. for 48 h, and 72 h for fungi. The inhibition zones were measured in mm. Discs impregnated with DMSO were used as a control, and its inhibition zone was subtracted from the tested compound actual inhibition zone.

The subject of the next series is Escherichia coli. The series is described as above. It counts as cell-based. Conditions: nutrient agar, 37° C., 48 h, DMSO zone subtracted. As for the experimental part: as §1
Another series relates to Pseudomonas aeruginosa. The series is described as above. Conditions: nutrient agar, 37° C., 48 h, DMSO zone subtracted. It counts as cell-based. How it is done: as §1
The next series concerns Staphylococcus aureus. Described as above. It is filed as cell-based. Conditions: nutrient agar, 37° C., 48 h, DMSO zone subtracted. How it is done:
as §1

A further series relates to Aspergillus flavus. Briefly: Agar plate disc-diffusion, antifungal activity (inhibition zone). It is filed as cell-based. Conditions: Sabouraud's dextrose agar, 72 h, DMSO zone subtracted. As for the experimental part: as §1
Series [1] relates to Chrysosporium keratinophilum. Described as above. Conditions: Sabouraud's dextrose agar, 72 h, DMSO zone subtracted. It counts as cell-based. How it is done:
as §1

In a further series the test system is different microbes. Briefly: Antimicrobial testing, overall statement on Tables 1 and 2. It counts as cell-based. Conditions: summary of Tables 1 and 2; bacteria and fungi tested. How it is done: as §1
Their antibacterial activity was screened against gram positive bacteria namely Bacillus cereus and Staphylococcus aureus and gram-negative bacterial strains namely Pseudomonas aeruginosa and Escherichia coli, while their antifungal activity was screened against Aspergillus flavus and Chrysosporium keratinophilum.

Where [2] appears, read: A = concentration of comp. = 10,000 μL.
The mark [3] stands for this setting: B = concentration of comp. = 30.000 μL.
Where [4] appears, read: C = concentration of comp. = 50,000 μL.

With `O=C(O)c1cn(C2CC2)c2cc(N3CCNCC3)c(F)cc2c1=O` [Cip., reference compound], the inhibition zone with Bacillus cereus (setting [2]) is listed as 29 mm; in the series with Bacillus cereus (setting [3]) it was 30 mm; in the series on Bacillus cereus (setting [4]) it was 42 mm; with Escherichia coli (setting [2]) it was 30 mm; with Escherichia coli (setting [3]), 39 mm; in the series on Escherichia coli (setting [4]), 60 mm. Besides, the inhibition zone in the series on Pseudomonas aeruginosa (setting [2]) came to 29 mm; in the series on Pseudomonas aeruginosa (setting [3]), 30 mm; in the series with Pseudomonas aeruginosa (setting [4]) it was 53 mm; in the series on Staphylococcus aureus (setting [2]), 43 mm; in the series on Staphylococcus aureus (setting [3]), 44 mm; in the series on Staphylococcus aureus (setting [4]) it was 53 mm. For the same compound, the inhibition zone in the series on Aspergillus flavus (setting [2]) came to 29 mm; in the series with Aspergillus flavus (setting [3]), 30 mm; in the series with Aspergillus flavus (setting [4]), 42 mm; in series [1] (setting [2]), 29 mm; in series [1] (setting [3]) it was 30 mm; in series [1] (setting [4]) it was 53 mm.
For `CCOc1nc(-c2cc3ccccc3oc2=O)cc(-c2ccccc2)c1C#N` [Compound 1, 2-ethoxy-6-(2-oxo-2H-1-benzopyran-3-yl)-4-phenylpyridine-3-carbonitrile], the inhibition zone is listed as 31 mm in the series with Bacillus cereus (setting [2]); 36 mm in the series with Bacillus cereus (setting [3]); 43 mm in the series on Bacillus cereus (setting [4]); 38 mm in the series on Escherichia coli (setting [2]); 43 mm in the series on Escherichia coli (setting [3]); 48 mm with Escherichia coli (setting [4]). In addition, the inhibition zone is given as 25 mm in the series with Pseudomonas aeruginosa (setting [2]); 32 mm with Pseudomonas aeruginosa (setting [3]); 40 mm in the series with Pseudomonas aeruginosa (setting [4]); 11 mm in the series on Staphylococcus aureus (setting [2]); 19 mm in the series on Staphylococcus aureus (setting [3]); 21 mm with Staphylococcus aureus (setting [4]). The inhibition zone in the series on Aspergillus flavus (setting [2]) amounted to 29 mm; in the series on Aspergillus flavus (setting [3]) it was 33 mm; in the series on Aspergillus flavus (setting [4]), 41 mm; in series [1] (setting [2]), 22 mm; in series [1] (setting [3]), 31 mm; in series [1] (setting [4]) it was 37 mm. For the same compound, the “antimicrobial activity (in words)” value in the series on different microbes was “high antimicrobial activities”.
In turn, `COc1nc(-c2cc3ccccc3oc2=O)cc(-c2ccccc2)c1C#N` [Compound 2, 2-methoxy-6-(2-oxo-2H-1-benzopyran-3-yl)-4-phenylpyridine-3-carbonitrile] yielded a melting point of 149 to 150 °C. For the same compound, the inhibition zone in the series with Bacillus cereus (setting [2]) was determined as 33 mm. In the series with Bacillus cereus (setting [3]), this compound yielded an inhibition zone of 38 mm. Also, the inhibition zone in the series with Bacillus cereus (setting [4]) was determined as 44 mm. In the series with Escherichia coli (setting [2]), the inhibition zone came to 37 mm. Further, the inhibition zone in the series on Escherichia coli (setting [3]) was found to be 43 mm. Besides, the inhibition zone in the series with Escherichia coli (setting [4]) is on record as 49 mm. Moreover, the inhibition zone with Pseudomonas aeruginosa (setting [2]) was 25 mm. In the series on Pseudomonas aeruginosa (setting [3]), this compound yielded an inhibition zone of 34 mm. This compound also displayed an inhibition zone in the series on Pseudomonas aeruginosa (setting [4]) of 41 mm. The compound also displayed an inhibition zone in the series with Staphylococcus aureus (setting [2]) of 15 mm. In addition, the inhibition zone with Staphylococcus aureus (setting [3]) was determined as 22 mm. The compound also came in with an inhibition zone in the series on Staphylococcus aureus (setting [4]) of 25 mm. Moreover, the inhibition zone in the series on Aspergillus flavus (setting [2]) is given as 17 mm. For the same compound, the inhibition zone with Aspergillus flavus (setting [3]) is 21 mm. In the series on Aspergillus flavus (setting [4]), the inhibition zone was 29 mm. Further, the inhibition zone in series [1] (setting [2]) is 31 mm. For the same compound, the inhibition zone in series [1] (setting [3]) amounted to 39 mm. The inhibition zone in series [1] (setting [4]) is reported as 47 mm. For the same compound, the “antimicrobial activity (in words)” value with different microbes is “high antimicrobial activities”.

A word on the melting point: it is the temperature of the solid-liquid transition.
